The test system of this test is Blood Brain Barrier (BBB). Kind of test: Blood brain barrier permeability, Evans blue uptake into brain. Format: in vivo, mice. Particulars: peptide 1 mg/kg i.p. together with tPA 1 mg/kg; FIG. 4A. The procedure:
The uptake of Evans blue dye into a brain tissue served as a marker to for quantifying disruption of the blood-brain barrier and increase in permeability of the BBB. […] Data was expressed as absorbance at 620 nm per gram of tissue. The mean±SEM of data from 8-9 animals/group are shown.
FIG. 4A. Mice were injected i.p. with 25 μl of saline or saline containing either WT-tPA or mtPA (1 mg/kg each) alone or together with PAI-1 derived 18 amino acids (aa) (as denoted by SEQ ID NO. 8) or 6 aa (as denoted by SEQ ID NO. 3) peptides (1 mg/kg each). Ten minutes later, the mice were given an i.v. injection of 2% Evans blue (EB) in saline. One hour after injection of dye, organs were cleared of blood by transcardiac perfusion. […] Extruded dye was quantified by absorbance at 620 nm. The figure presents a histogram illustration of the absorbance of EB at […] per gram of tissue. […]
To determine the effect of injection of tPA-S^481A on BBB function, anesthetized mice were injected i.p. with 25 μl of saline or saline containing tPA or tPA mutant (tPA-Ser^481Ala) (1 mg/kg each), followed by the intravenous injection of 2% Evans blue in saline. Evans blue was quantified by absorbance at 620 nm.
Plasminogen activator inhibitor-1 (PAI-1) is recognized as the inhibitor of tPA. […] Extruded dye was quantified by absorbance at 620 nm. Data are expressed in FIG. 4A as absorbance per gram of tissue.

Regarding “EEIIMD (listed as Homo sapiens) [reference compound]”, the “inhibition of recombinant tPA-induced BBB permeability” value is “failed to decrease”.

(Values after patent US9072737B2, “tPA mutant in the treatment of acute brain injury and neurodegenerative disorders” (HADASIT MEDICAL RESEARCH SERVICES & DEVELOPMENT LTD., priority 2008, dated 2015).)
